Source: ChEMBL document CHEMBL3351509, “Identification of 3,6-disubstituted dihydropyrones as inhibitors of human lactate dehydrogenase” (Bioorg Med Chem Lett, 2014)
Converted amounts (≈) assume the structure as drawn.

Experiments:
[1] = molecular target: L-lactate dehydrogenase A chain (Homo sapiens, UniProt P00338); assay: Inhibition of human LDH-A by biochemical assay
[2] = Dissociation constant, pKa of the compound; format: physicochemical
[3] = Permeability from apical to basolateral side in MDCK cells; format: ADME, cell-based, Canis lupus familiaris; conditions: dog
[4] = Permeability from basolateral to apical side in MDCK cells; format: ADME, cell-based, Canis lupus familiaris; conditions: dog
[5] = Unbound fraction in human plasma; format: ADME, cell-free
[6] = Unbound fraction in rat plasma; format: ADME, cell-free
[7] = Kinetic solubility in pH 7.4 buffered aqueous solution; format: physicochemical; conditions: read-out: Kinetic_solubility
[8] = Hepatic clearance in human liver microsomes; format: ADME
[9] = Hepatic clearance in rat liver microsomes; format: ADME
[10] = system: MCF7; assay: Inhibition of lactate production in human MCF7 cells under standard serum conditions; format: functional, cell-based
[11] = system: MCF7; assay: Inhibition of lactate production in human MCF7 cells in absence of serum; format: functional, cell-based
[12] = system: MCF7; assay: Toxicity in human MCF7 cells assessed as effect on cell viability; format: cell-based

## O=C1CC(c2ccccc2)CC(O)=C1Sc1ccccc1Cl (stereo not drawn)
[1]
  IC50: 4 µM
[2]
  pKa: 3
[3]
  Papp A→B: 12 ×10⁻⁶ cm/s
[4]
  Papp B→A: 18 ×10⁻⁶ cm/s

## O=C1OC(C(=O)O)(c2ccccc2)CC(O)=C1Sc1ccccc1Cl (stereo not drawn)
[1]
  IC50: 46 µM

## O=C1OC(c2ccccc2)CC(O)=C1Sc1ccccc1Cl (stereo not drawn)
[1]
  IC50: 4 µM
[2]
  pKa: 2.4
[3]
  Papp A→B: 3 ×10⁻⁶ cm/s
[4]
  Papp B→A: 5 ×10⁻⁶ cm/s
[5]
  fraction unbound: 0.008
[6]
  fraction unbound: 0.008

## O=C1NC(c2ccccc2)CC(O)=C1Sc1ccccc1Cl (stereo not drawn)
[2]
  pKa: 4.1
[3]
  Papp A→B: 7 ×10⁻⁶ cm/s
[4]
  Papp B→A: 9 ×10⁻⁶ cm/s
[5]
  fraction unbound: 0.003
[6]
  fraction unbound: 0.006

## O=C1OC(c2ccccc2)CC(O)=C1Oc1ccccc1Cl (stereo not drawn)
[1]
  IC50: 11 µM
[2]
  pKa: 3.4
[3]
  Papp A→B: 4 ×10⁻⁶ cm/s
[4]
  Papp B→A: 6 ×10⁻⁶ cm/s
[5]
  fraction unbound: 0.006
[6]
  fraction unbound: 0.013

## O=C1CC(c2ccccc2)CC(O)=C1Oc1ccccc1Cl (stereo not drawn)
[1]
  IC50: 26 µM
[2]
  pKa: 3.7
[3]
  Papp A→B: 11 ×10⁻⁶ cm/s
[4]
  Papp B→A: 16 ×10⁻⁶ cm/s
[5]
  fraction unbound: 0.011
[6]
  fraction unbound: 0.012

## O=C1NC(c2ccccc2)CC(O)=C1Oc1ccccc1Cl (stereo not drawn)
[1]
  IC50: 11 µM
[2]
  pKa: 5.3
[3]
  Papp A→B: 11 ×10⁻⁶ cm/s
[4]
  Papp B→A: 12 ×10⁻⁶ cm/s
[5]
  fraction unbound: 0.022
[6]
  fraction unbound: 0.023

## O=C1OC(c2ccccc2)CC(O)=C1Nc1ccccc1Cl (stereo not drawn)
[1]
  IC50: 13 µM
[2]
  pKa: 4.2
[3]
  Papp A→B: 8 ×10⁻⁶ cm/s
[4]
  Papp B→A: 10 ×10⁻⁶ cm/s

## O=C1CC(c2ccccc2)CC(O)=C1Nc1ccccc1Cl (stereo not drawn)
[1]
  IC50: 25 µM
[2]
  pKa: 4.6
[3]
  Papp A→B: 4 ×10⁻⁶ cm/s
[4]
  Papp B→A: 10 ×10⁻⁶ cm/s

## O=C1NC(c2ccccc2)CC(O)=C1Nc1ccccc1Cl (stereo not drawn)
[1]
  IC50: 66 µM
[2]
  pKa: 6
[3]
  Papp A→B: 19 ×10⁻⁶ cm/s
[4]
  Papp B→A: 30 ×10⁻⁶ cm/s

## O=C1OC(c2ccccc2Cl)CC(O)=C1Sc1ccccc1Cl (stereo not drawn)
[1]
  IC50: 5.5 µM

## O=C1OC(c2cccc(Cl)c2)CC(O)=C1Sc1ccccc1Cl (stereo not drawn)
[1]
  IC50: 3.9 µM

## O=C1OC(c2ccc(Cl)cc2)CC(O)=C1Sc1ccccc1Cl (stereo not drawn)
[1]
  IC50: 16 µM

## O=C1OC(c2c(Cl)cccc2Cl)CC(O)=C1Sc1ccccc1Cl (stereo not drawn)
[1]
  IC50: 5 µM

## Cc1cccc(C)c1C1CC(O)=C(Sc2ccccc2Cl)C(=O)O1 (stereo not drawn)
[1]
  IC50: 17 µM

## N#Cc1ccccc1C1CC(O)=C(Sc2ccccc2Cl)C(=O)O1 (stereo not drawn)
[1]
  IC50: > 100 µM

## N#Cc1cccc(C2CC(O)=C(Sc3ccccc3Cl)C(=O)O2)c1 (stereo not drawn)
[1]
  IC50: 9.5 µM

## CCOc1ccccc1C1CC(O)=C(Sc2ccccc2Cl)C(=O)O1 (stereo not drawn)
[1]
  IC50: 3.8 µM

## CCOc1cccc(C2CC(O)=C(Sc3ccccc3Cl)C(=O)O2)c1 (stereo not drawn)
[1]
  IC50: 2.2 µM

## CC(C)C1CC(O)=C(Sc2ccccc2Cl)C(=O)O1 (stereo not drawn)
[1]
  IC50: > 100 µM

## O=C1OC(C2CCOCC2)CC(O)=C1Sc1ccccc1Cl (stereo not drawn)
[1]
  IC50: > 100 µM

## Cn1ccc(C2CC(O)=C(Sc3ccccc3Cl)C(=O)O2)n1 (stereo not drawn)
[1]
  IC50: 35 µM

## O=C1OC(c2cncnc2)CC(O)=C1Sc1ccccc1Cl (stereo not drawn)
[1]
  IC50: 73 µM

## O=C1OC(c2ccccn2)CC(O)=C1Sc1ccccc1Cl (stereo not drawn)
[1]
  IC50: 3.5 µM

## O=C1OC(c2cccnc2)CC(O)=C1Sc1ccccc1Cl (stereo not drawn)
[1]
  IC50: 15 µM

## O=C1OC(c2ccncc2)CC(O)=C1Sc1ccccc1Cl (stereo not drawn)
[1]
  IC50: 43 µM

## CC1(c2ccccc2)CC(O)=C(Sc2ccccc2Cl)C(=O)O1 (stereo not drawn)
[1]
  IC50: 4.1 µM

## O=C1OC(c2ccccc2)(C2CC2)CC(O)=C1Sc1ccccc1Cl (stereo not drawn)
[1]
  IC50: 13 µM

## O=C1OC(CO)(c2ccccc2)CC(O)=C1Sc1ccccc1Cl (stereo not drawn)
[1]
  IC50: 5.6 µM

## NC(=O)C1(c2ccccc2)CC(O)=C(Sc2ccccc2Cl)C(=O)O1 (stereo not drawn)
[1]
  IC50: 6.6 µM

## CNC(=O)C1(c2ccccc2)CC(O)=C(Sc2ccccc2Cl)C(=O)O1 (stereo not drawn)
[1]
  IC50: 7.4 µM

## CN(C)C(=O)C1(c2ccccc2)CC(O)=C(Sc2ccccc2Cl)C(=O)O1 (stereo not drawn)
[1]
  IC50: 22 µM

## CNC(=O)CC1(c2ccccc2)CC(O)=C(Sc2ccccc2Cl)C(=O)O1 (stereo not drawn)
[1]
  IC50: 59 µM

## O=C1OC2(CCc3c(Br)cccc32)CC(O)=C1Sc1ccccc1Cl (single isomer, unassigned)
[1]
  IC50: 2.1 µM

## O=C1OC2(CCOc3ccccc32)CC(O)=C1Sc1ccccc1Cl (single isomer, unassigned; enantiomer A)
[1]
  IC50: 3.3 µM

## O=C1OC2(CCCc3ccccc32)CC(O)=C1Sc1ccccc1Cl (single isomer, unassigned; enantiomer A)
[1]
  IC50: 2.1 µM

## O=C1OC2(CCc3ccccc32)CC(O)=C1Sc1ccccc1Cl (single isomer, unassigned; enantiomer A)
[1]
  IC50: 0.36 µM

## O=C1OC2(CCc3c(Br)cccc32)CC(O)=C1Sc1ccccc1Cl (single isomer, unassigned; enantiomer A)
[1]
  IC50: 0.35 µM

## O=C1OC2(CCc3c(-c4ccccc4)cccc32)CC(O)=C1Sc1ccccc1Cl (single isomer, unassigned; enantiomer A)
[1]
  IC50: 0.03 µM
[3]
  Papp A→B: 1.6 ×10⁻⁶ cm/s
[5]
  fraction unbound: < 0.01
[6]
  fraction unbound: < 0.01
[7]
  solubility kinetic: 169 µM (≈ 73.5 µg/mL)
[8]
  CLhep predicted: 20 mL/min/kg
[9]
  CLhep predicted: 41 mL/min/kg
[10]
  EC50: > 50 µM
[11]
  EC50: 32 µM
[12]
  Activity: Non-toxic

## O=C1OC2(CCOc3ccccc32)CC(O)=C1Sc1ccccc1Cl (single isomer, unassigned; enantiomer B)
[1]
  IC50: 28 µM

## O=C1OC2(CCCc3ccccc32)CC(O)=C1Sc1ccccc1Cl (single isomer, unassigned; enantiomer B)
[1]
  IC50: 22 µM

## O=C1OC2(CCc3ccccc32)CC(O)=C1Sc1ccccc1Cl (single isomer, unassigned; enantiomer B)
[1]
  IC50: 2.6 µM

## O=C1OC2(CCc3c(-c4ccccc4)cccc32)CC(O)=C1Sc1ccccc1Cl (single isomer, unassigned; enantiomer b)
[1]
  IC50: 0.61 µM
